Data as given in patent publication US9403829B2, “Pharmaceutical compositions of 7-(6-(2-hydroxypropan-2-yl)pyridin-3-yl)-1-((trans)-4-methoxycyclohexyl)-3,4-dihydropyrazino [2,3-b]pyrazin-2(1H)-one, a solid form thereof and methods of their use” (Signal Pharmaceuticals, LLC, priority 2011, dated 2016).
Like-named read-outs stand apart in the source and are kept apart here.

Experiments:
[1] = Phase 1 crossover pharmacokinetic study of tablet and capsule formulations, single oral dose; assay type: in vivo, human; conditions: male, human, plasma, oral; for AUC(0-t): read-out: AUC0-24
Procedure: Certain formulations provided herein were evaluated in a Phase 1, open-label, randomized, crossover study.
On Day 1 of Period 1, following an overnight fast of at least 8 hours, subjects were randomized to one of the following 3 sequences to receive Treatment A, B or C (Table 30).
In Treatment A, one 20-mg reference Compound A API-in-capsule was administered orally after at least 8 hour fast with 240 mL of non-carbonated, room temperature water. In Treatment B, one 20-mg tablet of Compound A (Tablet Formulation XIII) was administered under fasted conditions. In Treatment C, four 5-mg tablets of Compound A (Tablet Formulation XIV) were administered under fasted conditions. The 20-mg tablet and four 5-mg tablets were administered orally after at least 8 hour fast with 240 mL of non-carbonated, room temperature water.
For each period, serial blood samples were collected before dosing (zero hour) and at 0.5, 1, 1.5, 2, 2.5, 3, 4, 6, 8, 12, 24, 48, 72, and 96 hours after dosing. Plasma concentrations of Compound A were determined for determining PK parameters, such as […], AUC0-∞, Cmax, Tmax, t1/2, CL/F, and Vz/F for Compound A. Plasma PK parameters were calculated using non compartmental methods. Analyses of variance (ANOVA) were performed on the natural log-transformed AUC0-t, AUC0-∞, and Cmax for Compound A. The geometric mean ratios (test/reference) and their 90% confidence intervals were also calculated. For Tmax, non parametric analysis was used to produce median differences.

[2] = Pharmacokinetics of the metabolite produced in vivo after administration of 7.5-60 mg Compound A; conditions: human; for AUC(0-t): read-out: AUC0-24; for concentration at 15 day: read-out: Ctrough
Procedure: In certain embodiments, the pharmacokinetic parameters in connection with the metabolite of Compound A produced via administration of 7.5 mg, 15 mg, 30 mg, 45 mg and 60 mg of Compound A are obtained using the protocol set forth in Section 5.2.1 (paragraphs [00497]-[00520]) of U.S. provisional application No. 61/653,436, filed May 31, 2012, which is incorporated by reference herein in its entirety.
In certain embodiments, the pharmacokinetic parameters set forth herein are mean values obtained from multiple subjects.
In certain embodiments, the metabolite of Compound A is the O-desmethyl metabolite.

[3] = upon administration of about 20 mg of Compound A (protocol of Section 6.5.1)
[4] = Treatment A: one 20-mg Compound A API-in-capsule, fasted, n = 18, geometric mean
[5] = 7.5 mg, day 1 of administration of about 7.5 mg of Compound A
[6] = 7.5 mg, on day (number not given) of once a day administration of about 7.5 mg of Compound A
[7] = 15 mg, day 1 of administration of about 15 mg of Compound A
[8] = 15 mg, on day (number not given) of once a day administration of about 15 mg of Compound A
[9] = 30 mg, day 1 of administration of about 30 mg of Compound A
[10] = 30 mg, day 15 of once a day administration of about 30 mg of Compound A
[11] = 45 mg, day 1 of administration of about 45 mg of Compound A
[12] = 45 mg, day 15 of once a day administration of about 45 mg of Compound A
[13] = 60 mg, day 1 of administration of about 60 mg of Compound A
[14] = 60 mg, day 15 of once a day administration of about 60 mg of Compound A

Cmax [1, 3]: 503 ng/mL
Tmax [1, 3]: 3 h
half-life [1, 3]: 14.3 h
AUC(0-t) [1, 3]: 7480 ng·h/mL
AUC(0-inf) ([1]; upon administration of about 20 mg of Compound A (protocol of Section 6.5.1), read-out: AUC∞): 11900 ng·h/mL
half-life [1, 4]: 14.3 h
Tmax ([1]; Treatment A: one 20-mg Compound A API-in-capsule, fasted, healthy adult males, n = 18, median): 3 h
Cmax [1, 4]: 503 ng/mL
AUC(0-t) [1, 4]: 7480 ng·h/mL
AUC(0-inf) ([1]; Treatment A: one 20-mg Compound A API-in-capsule, fasted, n = 18, geometric mean, read-out: AUC0-∞): 11900 ng·h/mL
AUC(0-inf) [2, 5]: 7950 ng·h/mL
Cmax [2, 5]: 143 ng/mL
Tmax [2, 5]: 8 h
half-life [2, 5]: 35 h
AUC(0-t) [2, 5]: 2740 ng·h/mL
AUC(0-inf) [2, 6]: 45600 ng·h/mL
Cmax [2, 6]: 363 ng/mL
Tmax [2, 6]: 2 h
AUC(0-t) [2, 6]: 6400 ng·h/mL
AUC(0-inf) [2, 7]: 5820 ng·h/mL
Cmax [2, 7]: 309 ng/mL
Tmax [2, 7]: 2 h
half-life [2, 7]: 12 h
AUC(0-t) [2, 7]: 3830 ng·h/mL
AUC(0-inf) [2, 8]: 9750 ng·h/mL
Cmax [2, 8]: 458 ng/mL
Tmax [2, 8]: 3 h
AUC(0-t) [2, 8]: 5680 ng·h/mL
AUC(0-inf) [2, 9]: 27700 ng·h/mL
Cmax [2, 9]: 776 ng/mL
Tmax [2, 9]: 7 h
half-life [2, 9]: 21 h
AUC(0-t) [2, 9]: 13300 ng·h/mL
AUC(0-inf) [2, 10]: 118000 ng·h/mL
Cmax [2, 10]: 1770 ng/mL
Tmax [2, 10]: 2 h
AUC(0-t) [2, 10]: 29400 ng·h/mL
AUC(0-inf) [2, 11]: 27300 ng·h/mL
Cmax [2, 11]: 1150 ng/mL
Tmax [2, 11]: 3 h
half-life [2, 11]: 17 h
AUC(0-t) [2, 11]: 15900 ng·h/mL
AUC(0-inf) [2, 12]: 77700 ng·h/mL
Cmax [2, 12]: 2240 ng/mL
Tmax [2, 12]: 2 h
AUC(0-t) [2, 12]: 32700 ng·h/mL
AUC(0-inf) [2, 13]: 37500 ng·h/mL
Cmax [2, 13]: 1440 ng/mL
Tmax [2, 13]: 4 to 6 h
half-life [2, 13]: 16 h
AUC(0-t) [2, 13]: 21500 ng·h/mL
AUC(0-inf) [2, 14]: 138000 ng·h/mL
Cmax [2, 14]: 2520 ng/mL
Tmax [2, 14]: 3 h
AUC(0-t) [2, 14]: 46900 ng·h/mL
concentration at 15 day ([2]; day 15 of once a day administration of about 30 mg of Compound A): 1100 ng/mL
concentration at 15 day ([2]; day 15 of once a day administration of about 45 mg of Compound A): 1180 ng/mL
concentration at 15 day ([2]; day 15 of once a day administration of about 60 mg of Compound A): 1470 ng/mL
Structure (SMILES): CC(C)(O)c1ccc(-c2cnc3c(n2)N([C@H]2CC[C@H](O)CC2)C(=O)CN3)cn1 [O-Desmethyl metabolite, 1-((1r,4r)-4-hydroxycyclohexyl)-7-(6-(2-hydroxypropan-2-yl)pyridin-3-yl)-3,4-dihydropyrazino[2,3-b]pyrazin-2(1H)-one]
